Here are results for 6 compounds from PMC3466118 (Journal of medicinal chemistry, 2011).

pEC50: −log10 of the molar value.

The test system of data set [1] is retinoic acid differentiated SH-SY5Y human neuroblastoma cells treated with 30. Kind of data set: Neuroprotection assay, cells stressed with compound 30. The data set is classed as cell-based. The following applies: for Neuroprotective effect: differentiated SH-SY5Y cells stressed with 100 μM of 30, 24 h, XTT.
Data set [2] concerns HepG2, Hela and SH-SY5Y carcinoma cell lines. Kind of data set: Antiproliferative activity across the three carcinoma cell lines. The data set is classed as cell-based. The following applies: Homo sapiens, read-out: EC50–48 h, span over the three cell lines.
Data set [3] concerns the target T1, recombinant human HDAC8 (Homo sapiens, UniProt Q9BY41).
T1 sequence (Q9BY41 1-377): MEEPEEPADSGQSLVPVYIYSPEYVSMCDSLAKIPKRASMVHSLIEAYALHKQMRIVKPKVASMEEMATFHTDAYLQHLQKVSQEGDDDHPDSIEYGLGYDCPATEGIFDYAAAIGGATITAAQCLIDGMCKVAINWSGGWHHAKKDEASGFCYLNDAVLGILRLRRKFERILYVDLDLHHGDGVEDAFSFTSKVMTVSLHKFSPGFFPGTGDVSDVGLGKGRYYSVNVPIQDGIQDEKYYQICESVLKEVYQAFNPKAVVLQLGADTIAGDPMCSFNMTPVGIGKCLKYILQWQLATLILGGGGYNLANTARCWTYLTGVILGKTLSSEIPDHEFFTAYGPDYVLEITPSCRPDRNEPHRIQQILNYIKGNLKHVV
Kind of data set: HDAC8 inhibition, fluorescent substrate Fluor de Lys.

Data set [4] concerns the target recombinant human HDAC3/NCoR2 (Homo sapiens, UniProt O15379). Kind of data set: HDAC3 inhibition, fluorescent substrate Boc-L-Lys.
In data set [5] the test system is retinoic acid-differentiated SH-SY5Y neuroblastoma cells. Kind of data set: Cytotoxicity in unstressed differentiated SH-SY5Y cells. The data set is classed as cell-based, human. The following applies: 0.5–50 μM, 24 h, XTT. For orientation: Formazan colour is commonly taken as a measure of viable cells.
For data set [6], the system named is acetylation of histone H4 in retinoic acid-differentiated SH-SY5Y cells. Kind of data set: Acetylation of H4 in differentiated SH-SY5Y cells. The data set is classed as cell-based, human. The following applies: 1 μM, also in cells stressed with compound 30.
Data set [7] has as its system cleavage of caspase 3 in HepG2 cells. Put plainly: Western blot, activation/cleavage of caspase 3 in HepG2 cells. The data set is classed as cell-based, human.
In data set [8] the test system is acetylation of p53 in HepG2 cells. Kind of data set: Western blot, acetylation of p53 in HepG2 cells. The data set is classed as cell-based, human. The following applies: HepG2 total cell extracts. A general note: Immunoblotting shows a protein as a band on a membrane.
For data set [9], the target named is T1, recombinant human HDAC8. The settings on record: cited from earlier work.

Sequence of recombinant human HDAC3/NCoR2 (O15379 whole entry): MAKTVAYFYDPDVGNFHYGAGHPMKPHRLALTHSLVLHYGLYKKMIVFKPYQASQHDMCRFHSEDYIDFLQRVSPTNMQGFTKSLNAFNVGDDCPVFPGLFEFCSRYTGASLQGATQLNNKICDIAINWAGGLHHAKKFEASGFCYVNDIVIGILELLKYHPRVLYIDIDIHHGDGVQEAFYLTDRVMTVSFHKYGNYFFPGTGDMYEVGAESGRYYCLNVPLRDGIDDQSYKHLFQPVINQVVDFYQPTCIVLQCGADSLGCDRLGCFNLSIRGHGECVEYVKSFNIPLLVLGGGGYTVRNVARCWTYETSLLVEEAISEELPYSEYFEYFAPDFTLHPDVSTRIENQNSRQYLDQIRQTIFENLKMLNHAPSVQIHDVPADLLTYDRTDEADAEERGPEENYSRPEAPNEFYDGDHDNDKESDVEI
Sequence of recombinant human HDAC3/NCoR2 (Q9Y618 395-489 partner limits assumed): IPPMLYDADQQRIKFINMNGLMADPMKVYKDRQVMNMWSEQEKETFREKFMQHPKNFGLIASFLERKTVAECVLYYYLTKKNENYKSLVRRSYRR

As usually defined, the pEC50 is the negative decadic logarithm of the EC50, by convention in mol/L. `[N-]=[N+]=Nc1ccc(Cn2cc(NC(=O)CCCCCCC(=O)NO)cn2)cc1` [3c, Octanedioic acid [1-(4-azidobenzyl)-1H-pyrazol-4-yl]amide hydroxyamide]: the Neuroprotective effect result in data set [1] is on record as “non-neuroprotective”. For the same compound, in data set [2], the pEC50 is 4.64 to 5.00. Moreover, the “Fold better potency than 3a, HDAC8” value in data set [3] (compared with 3a) is on record as 2.7 fold. The “Fold better potency than 3a, HDAC3” value in data set [4] (compared with 3a) is reported as 2.0 fold. In addition, the “Cytotoxicity to differentiated neuroblastoma cells” value in data set [5] was “not toxic to the cells”.

Turning to `[N-]=[N+]=NCc1cc(Cn2cc(NC(=O)CCCCCCC(=O)NO)cn2)cc(N=[N+]=[N-])c1` [3f, Octanedioic acid [1-(3-azido-5-azidomethylbenzyl)-1H-pyrazol-4-yl]amide hydroxyamide], the “Cell survival relative to vehicle” value in data set [1] (0.5 and 1 μM, differentiated SH-SY5Y cells stressed with 100 μM of 30) is reported as “more than doubles the amount of cell survival”. Besides, the Neuroprotective effect result in [1] is on record as “protect cells from stress induced by compound 30 at low micromolar concentrations”. In addition, in [6], the “Hyperacetylation of histone H4” value is given as “induce hyperacetylation of histone H4”. Moreover, the pEC50 in data set [2] was 4.44 to 4.62. Also, in [3] (HDAC8 vs HDAC3), the “Fold more active towards HDAC8 than HDAC3 (selectivity)” value is on record as 8 fold. In data set [4], the “IC50 ratio compound/SAHA, HDAC3” value is “ND ^e 4.74”. Besides, in data set [5], the “Cytotoxicity to differentiated neuroblastoma cells” value is on record as “subtle toxicity at 20 μM”.

For `[N-]=[N+]=Nc1ccc(-c2cc(C(=O)NCCCCCCC(=O)NO)no2)cc1` [2a, 5-(4-Azidophenyl)isoxazole-3-carboxylic acid(6-hydroxycarbamoylhexyl)amide], in data set [1], the Neuroprotective effect result is “protect cells from stress induced by compound 30 at low micromolar concentrations”. Also, the “Hyperacetylation of histone H4” value in data set [6] is on record as “induce hyperacetylation of histone H4”. The “Cytotoxicity to differentiated neuroblastoma cells” value in data set [5] was “not overly cytotoxic”.

Take `[N-]=[N+]=NCc1cc(N=[N+]=[N-])cc(C(=O)Nc2ccc(-c3cc(C(=O)NCCCCCCC(=O)NO)no3)cc2)c1` [2b, 5-[4-(3-Azido-5-azidomethylbenzoylamino)phenyl]isoxazole-3-carboxylic acid (6-hydroxycarbamoylhexyl)amide]: in [1], the Neuroprotective effect entry is reported as “protect cells from stress induced by compound 30 at low micromolar concentrations”. Besides, in data set [6], the “Hyperacetylation of histone H4” value was “induce hyperacetylation of histone H4”. For the same compound, the “Cleavage of caspase 3” value in data set [7] is listed as “induced cleavage of caspase 3 by 14 h with maximum activation at 24 h”. Further, the pEC50 in data set [2] is 4.49 to 4.96. Besides, the “Acetylation of p53” value in [8] is “neither SAHA nor 2b induced additional time and dose-dependent hyperacetylation of p53”.

In the case of `[N-]=[N+]=NCc1cc(COc2ccc(NC(=O)CCCCCCC(=O)NO)cc2)cc(N=[N+]=[N-])c1` [compound 1], the “Fold decrease in HDAC8 inhibitory activity compared to SAHA” value in [9] is on record as 17 fold.

As for `O=C(CCCCCCC(=O)Nc1cnn(Cc2ccccc2)c1)NO` [3a, Octanedioic acid (1-benzyl-1H-pyrazol-4-yl)amide hydroxyamide], in data set [1], the Neuroprotective effect entry is “non-neuroprotective”. In addition, in data set [2], the pEC50 was 4.64 to 5.00. Further, in data set [5], the “Cytotoxicity to differentiated neuroblastoma cells” value is on record as “not toxic to the cells”.
